# From the METLIN SMRT retention time set (Domingo-Almenara et al. 2019)
# Assay: gradient 5% acetonitrile 3 min, to 50% in 2 min, to 85% in 15 min, held 3 min, 100 µL/min
# Settings: column: Zorbax Extend-C18 2.1 x 50 mm; eluents: water / acetonitrile, 0.1% formic acid
# In short: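 Retention time was recorded from adduct peaks, which were picked computationally and each inspected manually. Pure standards ran in mixtures of ~100 molecules on HPLC coupled to a quadrupole time-of-flight mass spectrometer, in positive and negative ionization mode, through a Zorbax Extend-C18 column (2.1 × 50 mm, 1.8 μm) at 100 μL/min. Eluents were water and acetonitrile, each with 0.1% formic acid.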
row,Structure (SMILES),RP-LC retention time [s]
1,C/C=C1/[C@H]2C=C(C)C[C@]1(N)c1ccc(=O)[nH]c1C2,589
2,COc1cccc(-c2nc(C3CCN(C(=O)c4cc5ccccc5[nH]4)CC3)no2)c1,1040
3,Cc1nn(C)c(C)c1CCN(C)C(=O)C1CCCCC(=O)N1C (centres undefined),582
4,O=C(NC1CC1)C1CCN(Cc2cc3ccccc3n2Cc2ccccc2)CC1,694
5,COc1cccc(NC(=O)N2CCc3nc[nH]c3C2)c1,554
6,O=C(NCc1ccc(F)cc1)C1CCCN(c2ncnc3c2nc2n3CCCCC2)C1 (centres undefined),759
7,Cc1nc(-c2ccncc2)nc2c1CCC(=O)N2CCCN(C)C,549
8,CC(=O)N1CCC(C(=O)Nc2ccc(OCc3nnc(-c4ccc(Cl)cc4)o3)cc2)CC1,758
9,O=C(c1cccs1)N1CCN(Cc2ccc(=O)n(CC3CC3)c2)CC1,480
10,Cc1ccc(Sc2nccnc2N2CCCC(C(=O)NCC3CCCO3)C2)cc1 (centres undefined),917
11,COC(=O)CNC(=O)Cc1c(C)nn(-c2nc(-c3ccc(Cl)cc3)cs2)c1C,1010
12,Cc1cc(C)c(NC(=O)C2CCCN(c3nnc(C)c4c(C)n(-c5ccccc5)nc34)C2)c(C)c1 (centres undefined),769
13,O=C(Cc1ccsc1)N1CCc2nn(CC3CC3)c(=O)n2CC1,674
14,COC(=O)c1cc(OC)c(OC)cc1NC(=O)C1Oc2ccccc2OC1C (centres undefined),1040
15,CCCN1CCc2cccc3c2[C@H]1Cc1ccc(O)c(O)c1-3,652
16,CCOc1ccc(S(=O)(=O)N2CCC(C(=O)NCCc3ccc(OC)c(OC)c3)CC2)cc1C,901
17,O=C(c1cccs1)N1CCC2(CC1)NC(=O)N(Cc1ccc(Cl)cc1)C2=O,816
18,Cn1nc(C2CCN(C(=O)C3CCCO3)CC2)c2c1CCOC2 (centres undefined),586
19,O=C(C1CCC1)N1CCC2(CC1)NCCc1c2[nH]c2ccccc12,628

row,Structure (SMILES),RP-LC retention time [s]
1,Cc1c(CCC(=O)N[C@H](C)C(=O)O)c(=O)oc2c(C)c(O)ccc12,618
2,CCCN(CCC)C1CCc2cccc(OC)c2C1 (centres undefined),762
3,O=C(Cc1ccsc1)NCCC1CCN(C(=O)Nc2ccc(F)cc2F)CC1,766
4,O=C(Nc1cnc(-c2ccc(Cl)cc2)nc1)c1ccc(Br)o1,1120
5,Cc1noc(-c2nn(C)c3c2CN(C(=O)c2ccccc2Br)CC3)n1,725
6,COc1ccc(OC)c(NC(=O)N2CCc3nc[nH]c3C2)c1,580
7,CCCn1ccc2sc(C)c(C(=O)NCCN3CCCCCC3)c2c1=O,657
8,COc1ccc(C)cc1Nc1nc(N)nc(CN2CCN(c3ccccn3)CC2)n1,606
9,Cc1cc(N2CCCC2)n2nc(-c3ccccc3C)nc2n1,729
10,CCC(=O)Nc1ccc(-n2cnc(C(=O)N3CCN(c4cccc(C)c4C)CC3)c2)nc1,855
11,COc1cc(=O)n2c(c1C(=O)Nc1cccc(SC)c1)CCCC2,734
12,CCc1onc(C)c1C1CCCN1C(=O)c1c(Cl)cnn1CC (centres undefined),773
13,CC(=O)Nc1ccc(S(=O)(=O)N2CCC(C(=O)N3CCN(c4ncccn4)CC3)CC2)cc1,666
14,CCC1CCCCN1CCNC(=O)CCc1cc2cc(OC)ccc2[nH]c1=O (centres undefined),593
15,COc1cccc(/C=C/c2nc(C#N)c(NCCN(C)C)o2)c1,654
16,N#CCCN1CCN(C2=NC(=O)/C(=C\c3cccs3)S2)CC1,611
17,COc1cccc(-c2noc(C3CCCN3C(=O)Nc3cc(C)ccc3C)n2)c1 (centres undefined),1020
18,O=C(Nc1cccc(-c2ccc(N3CCOCC3)nn2)c1)Nc1ccc2c(c1)CCC2,792
19,CCn1nc(C)c(-c2cc(C(=O)O)[nH]n2)c1C,589

row,Structure (SMILES),RP-LC retention time [s]
1,COc1ccc(-c2ncc3c(n2)CCN(C(=O)c2ccc(F)cc2Cl)C3)cc1,971
2,CCC1CCCCN1C(=O)c1cnc2nc(C)ccc2c1Nc1ccc(C)c(F)c1 (centres undefined),716
3,CC(=O)N(C1CC1)C1CCOC2(CCN(C(=O)c3sc(C)nc3C)CC2)C1 (centres undefined),643
4,CCn1cc(-c2ccc(OC)cc2)cc1C(=O)NCCN1CCN(C)CC1,623
5,Cc1cccc(-c2noc(CN3N=NC4C(=O)N(c5cccc(Cl)c5)C(=O)C43)n2)c1 (centres undefined),1060
6,CC(C)CCNC(=O)c1nnc(-c2ccc(S(=O)(=O)N3CCOCC3)cc2)o1,851
7,CCc1nc2cc3c(cc2n1CC(=O)Nc1ccc(C)cc1)OCCO3,678
8,Cc1ccc(C)c(N2CCN(C(=O)Cn3cccc3-c3nnc(C4CC4)o3)CC2)c1,1020
9,Cc1cccc(CNC(=O)C2CCN(S(=O)(=O)c3c(C)[nH]c(C)c3C(=O)N3CCCC3)CC2)c1,695
10,CC(=O)c1cccc(NC(=O)c2noc3c2CCCCC3)c1,977
11,CN1C(=O)[C@H]2CN(Cc3ccc(C#N)cc3)C[C@H]2C1=O,574
12,O=C1CC(c2noc(-c3ccc(F)cc3)n2)CN1c1ccc(Cl)cc1 (centres undefined),1070
13,O=C(Cc1csc(NC(=O)C2CC2)n1)Nc1ccc(Cl)c(Cl)c1,827
14,OC(C#Cc1ccccc1)(c1ccccc1)c1ccccc1,764
15,Cc1cccc(NC(=O)N2CCC(c3nc(C(=O)N4CCCC4)c(C)o3)CC2)c1C,781
16,CCCC(=O)Nc1nnc(SCc2nnc(-c3ccc4c(c3)OCO4)o2)s1,794
17,CCCOC(=O)C1=C(C)NC2=C(C(=O)C(C(=O)OC)C(C)C2)C1c1ccccc1OC (centres undefined),906
18,CCN(CC)S(=O)(=O)c1ccc2c(c1)CC(C(=O)N1CCN(C3CCCCC3)CC1)N2C(C)=O (centres undefined),666
19,Cc1nc(-c2cc(S(=O)(=O)N3CCC(C(=O)N4CCCCCC4)CC3)c(C)s2)no1,919

# Results, then the compound that gave them:
row,RP-LC retention time [s],Structure (SMILES)
1,934,O=C1COc2ccccc2N1Cc1nc(-c2ccc3c(c2)OCO3)no1
2,775,CC(C)NC(=O)N1CCC(c2noc(-c3ccccc3)n2)C1 (centres undefined)
3,728,O=C(NCC1CCCO1)C1c2ccccc2C(=O)N1Cc1ccc2c(c1)OCO2 (centres undefined)
4,838,CCn1cc(S(=O)(=O)Nc2ccc(C)cc2)c2cccnc21
5,782,O=C(Cn1ccc2c(SCc3ccc(F)cc3)nccc21)N1CCN(c2ccccc2)CC1
6,992,O=S(=O)(c1cccs1)N1CCc2nc(-c3ccccc3)ncc2C1
7,957,O=C1N(c2ccccc2)CC12CCN(S(=O)(=O)c1ccccc1)CC2
8,789,CCOc1ccc(NC(=O)c2oc3ccc(Cl)cc3c2C)c2cccnc12
9,790,Cc1cccc(NC(=O)C2CCN(C(=O)C3Sc4ccccc4NC3=O)CC2)c1 (centres undefined)
10,662,CCOc1ccc(S(=O)(=O)N2CCC(C(=O)NCc3ccncc3)CC2)cc1C
11,869,COc1cccc(-n2ccc(=O)c(-c3nc(-c4ccccc4F)no3)n2)c1
12,822,O=C(NCc1csc(-c2ccccc2)n1)C1CCN(C(=O)Nc2ccccc2Cl)CC1
13,744,COC(=O)c1ccc2c(=O)n(-c3cccc(Cl)c3)c(N3CCN(c4ccccn4)CC3)nc2c1
14,574,Cc1cc(=O)oc2cc(OCC(O)CN3CCN(c4ccccn4)CC3)ccc12 (centres undefined)
15,1210,Brc1ccc(Nc2nc(-c3ccccc3)cs2)nc1
16,975,Cc1ccccc1CNC(=O)C1CCN(S(C)(=O)=O)c2cc(Cl)ccc2O1 (centres undefined)

row,RP-LC retention time [s],Structure (SMILES)
1,900,COc1ccc(-c2ccc(=O)n(Cc3nc(-c4ccccc4)no3)n2)cc1OC
2,896,CCNC(=O)N1CCCC(c2cccc(C(=O)NCc3ccc(C(F)(F)F)cc3)c2)C1 (centres undefined)
3,1100,O=S(=O)(c1cc(F)ccc1F)N1CCc2nc(-c3ccc(F)cc3)ncc2C1
4,1380,Cc1cc(C)c2c(=O)n(Cc3nc(-c4ccccc4)oc3C)c(=O)n(Cc3ccco3)c2n1
5,1410,COc1ccccc1N1CCN(S(=O)(=O)c2cc(-c3nc(C(C)C)cs3)sc2C)CC1
6,817,O=C(Nc1ncnc2c1CCC2)c1ccc(S(=O)(=O)N2CCCc3ccccc32)cc1
7,938,Cc1cc(-c2nnc(-c3ccccc3)o2)c(C)n1CC(=O)Nc1cccc(F)c1
8,917,O=C(NC1CCCCCC1)c1nc(Nc2ccccc2)c2ccccc2n1
9,688,O=C(c1cccs1)N1CCCC(c2nncn2-c2ccccc2)C1 (centres undefined)
10,762,Cc1cc(NC(=O)CSc2nnc(Cc3cccn3C)n2CCc2ccccc2)no1
11,796,O=C(Cn1nc2c3cc(-c4ccccc4)nn3ccn2c1=O)NC1CCCC1
12,936,O=C(CN1C(=O)c2ccccc2C1=O)NCC1(c2cccs2)CCCCC1
13,716,O=C(c1cn2c(n1)COCC2)N(Cc1ccccc1)Cc1ccco1
14,977,CC(C)n1cc(S(=O)(=O)NCc2ccccc2C(F)(F)F)c2cccnc21
15,722,O=C(c1ccc(S(=O)(=O)c2cccc(Cl)c2)c([N+](=O)[O-])c1)N1CCN(c2ccccn2)CC1
16,968,CC1Oc2ccc(-c3csc(NC(=O)c4ccccc4Cl)n3)cc2N(C)C1=O (centres undefined)
